Measurements published in patent publication US20240336654A1, “ANTIMICROBIAL PEPTIDOMIMETICS” (SPEXIS AG, priority 2021, published 2024).
Where a SMILES comes first, the peptide text is derived from it. Bridges are numbered along the chain shown (N, C = ends). [ ]: non-standard residue; d: D form. The star is where a group is joined. Val(Nα-amidino) = CC(C)[C@H](NC(=N)N)C(=O)*; dDab(iPr) = CC(C)NCC[C@@H](N)C(=O)O; Hyp = O=C(O)[C@@H]1C[C@@H](O)CN1; Cit = NC(=O)NCCC[C@H](N)C(=O)O; Agb = N=C(N)NCC[C@H](N)C(=O)O; Pen = CC(C)(S)[C@H](N)C(=O)O; X1 = CC[C@H](NC(=N)N)C(=O)*; dDab = NCC[C@@H](N)C(=O)O; Dab = NCC[C@H](N)C(=O)O

Columns and labels:
Format in all cases: cell-based
[1] = system: human red blood cells (hRBC); details: red cells of human, 1 h, 200 μg/mL
Procedure, shortened: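 Percent hemolysis derived from OD540 of supernatants relative to full lysis by 2.5% Triton X-100 (PBS baseline). Washed fresh human erythrocytes (20% v/v) were exposed to 200 μg/mL peptide for 1 h at 37 °C with shaking.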

[2] = system: Klebsiella pneumoniae SSI3010; details: SSI3010
Procedure, shortened: (§1)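 The MIC is the lowest peptide concentration, in μg/mL, with no visible growth after 18-20 h incubation at 35 °C. Serial two-fold peptide dilutions in water with 0.002% P-80 final were added to bacteria in cation-adjusted MHII broth, about 5×10^5 CFU/mL, following modified CLSI microdilution.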

[3] = system: Escherichia coli MCR-1 Af 45; details: MCR-1 Af 45
Procedure, shortened: as §1

[4] = system: Escherichia coli ATCC 25922; details: ATCC 25922
Procedure, shortened: as §1

SMILES | Hemolysis at 0.2 g/L [1] | Klebsiella pneumoniae SSI3010 MIC [2] | Escherichia coli MCR-1 Af45 MIC [3] | Escherichia coli ATCC 25922 MIC [4]
CC[C@H](C)[C@H](NC(=O)[C@@H]1C[C@@H](O)CN1C(=O)[C@@H](N)C(C)C)C(=O)N[C@@H]1C(=O)N[C@@H](Cc2ccc(O)cc2)C(=O)N[C@@H](CO)C(=O)N[C@@H](CC(N)=O)C(=O)N[C@@H](CCCNC(=N)N)C(=O)N[C@@H](CCN)C(=O)N[C@@H]([C@@H](C)O)C(=O)N[C@H](CCNC(C)C)C(=O)N[C@@H](CCCCN)C(=O)N[C@@H](CCN)C(=O)N[C@@H](CCN)C(=O)N[C@H](C(=O)N[C@@H](Cc2ccc(O)cc2)C(=O)O)CSSC1(C)C [Example 38, Val-Hyp-Ile-Pen-Tyr-Ser-Asn-Arg-Dab-Thr-^DDab(iPr)-Lys-Dab-Dab-Cys-Tyr] (H-V[Hyp]I[Pen]YSNR[Dab]T[dDab(iPr)]K[Dab][Dab]CY-OH; disulfide 4-15) | <1% | 0.5 µg/mL | 0.125 µg/mL | 0.125 µg/mL
CC[C@H](C)[C@H](NC(=O)[C@@H]1C[C@@H](O)CN1C(=O)[C@@H](NC(=N)N)C(C)C)C(=O)N[C@@H]1C(=O)N[C@@H](Cc2ccc(O)cc2)C(=O)N[C@@H]([C@@H](C)O)C(=O)N[C@@H](CC(N)=O)C(=O)N[C@@H](CCCNC(=N)N)C(=O)N[C@@H](CCN)C(=O)N[C@@H]([C@@H](C)O)C(=O)N[C@H](CCN)C(=O)N[C@@H](CCCCN)C(=O)N[C@@H](CCN)C(=O)N[C@@H](CO)C(=O)N[C@H](C(=O)N[C@@H](Cc2ccc(O)cc2)C(=O)O)CSSC1(C)C [Example 108, Gua-Val-Hyp-Ile-Pen-Tyr-Thr-Asn-Arg-Dab-Thr-Dab-Lys-Dab-S-Cys-Tyr] ({Val(Nα-amidino)}-[Hyp]I[Pen]YTNR[Dab]T[dDab]K[Dab]SCY-OH; disulfide 3-14) | <1% | 0.25 µg/mL | 0.125 µg/mL | 0.25 µg/mL
CC[C@H](C)[C@H](NC(=O)[C@@H]1C[C@@H](O)CN1C(=O)[C@@H](N)C(C)C)C(=O)N[C@@H]1C(=O)N[C@@H](Cc2ccc(O)cc2)C(=O)N[C@@H]([C@@H](C)O)C(=O)N[C@@H](CC(N)=O)C(=O)N[C@@H](CCCNC(=N)N)C(=O)N[C@@H](CCN)C(=O)N[C@@H]([C@@H](C)O)C(=O)N[C@H](CCN)C(=O)N[C@@H](CCCCN)C(=O)N[C@@H](CCN)C(=O)N[C@@H](CCN)C(=O)N[C@H](C(=O)N[C@@H](Cc2ccc(O)cc2)C(=O)O)CSSC1(C)C [Example 15, Val-Hyp-Ile-Pen-Tyr-Thr-Asn-Arg-Dab-Thr-^DDab-Lys-Dab-Dab-Cys-Tyr] (H-V[Hyp]I[Pen]YTNR[Dab]T[dDab]K[Dab][Dab]CY-OH; disulfide 4-15) | <1% | 0.125 µg/mL | 0.0625 µg/mL | 0.0625 µg/mL
CC[C@H](C)[C@H](NC(=O)[C@@H]1C[C@@H](O)CN1C(=O)[C@@H](N)C(C)C)C(=O)N[C@@H]1C(=O)N[C@@H](Cc2ccc(O)cc2)C(=O)N[C@@H](CO)C(=O)N[C@@H](CO)C(=O)N[C@@H](CCCNC(=N)N)C(=O)N[C@@H](CCN)C(=O)N[C@@H]([C@@H](C)O)C(=O)N[C@H](CCN)C(=O)N[C@@H](CCCCN)C(=O)N[C@@H](CCN)C(=O)N[C@@H](CCN)C(=O)N[C@H](C(=O)N[C@@H](Cc2ccc(O)cc2)C(=O)O)CSSC1(C)C [Example 24, Val-Hyp-Ile-Pen-Tyr-Ser-Ser-Arg-Dab-Thr-^DDab-Lys-Dab-Dab-Cys-Tyr] (H-V[Hyp]I[Pen]YSSR[Dab]T[dDab]K[Dab][Dab]CY-OH; disulfide 4-15) | <1% | 0.25 µg/mL | 0.125 µg/mL | 0.125 µg/mL
CC[C@H](C)[C@H](NC(=O)[C@@H]1C[C@@H](O)CN1C(=O)[C@@H](N)C(C)C)C(=O)N[C@@H]1C(=O)N[C@@H](Cc2ccc(O)cc2)C(=O)N[C@@H](CO)C(=O)N[C@@H](CC(N)=O)C(=O)N[C@@H](CCCNC(=N)N)C(=O)N[C@@H](CCN)C(=O)N[C@@H]([C@@H](C)O)C(=O)N[C@H](CCN)C(=O)N[C@@H](CCCCN)C(=O)N[C@@H](CCN)C(=O)N[C@@H](CCN)C(=O)N[C@H](C(=O)N[C@@H](Cc2ccc(O)cc2)C(=O)O)CSSC1(C)C [Example 1, Val-Hyp-Ile-Pen-Tyr-Ser-Asn-Arg-Dab-Thr-^DDab-Lys-Dab-Dab-Cys-Tyr] (H-V[Hyp]I[Pen]YSNR[Dab]T[dDab]K[Dab][Dab]CY-OH; disulfide 4-15) | <1% | 0.25 µg/mL | 0.03125 µg/mL | 0.125 µg/mL
CC[C@H](C)[C@H](NC(=O)[C@@H]1C[C@@H](O)CN1C(=O)[C@@H](NC(=N)N)C(C)C)C(=O)N[C@@H]1C(=O)N[C@@H](Cc2ccc(O)cc2)C(=O)N[C@@H](CO)C(=O)N[C@@H](CC(N)=O)C(=O)N[C@@H](CCCNC(=N)N)C(=O)N[C@@H](CCN)C(=O)N[C@@H]([C@@H](C)O)C(=O)N[C@H](CCN)C(=O)N[C@@H](CCCCN)C(=O)N[C@@H](CCN)C(=O)N[C@@H](CCNC(=N)N)C(=O)N[C@H](C(=O)N[C@@H](Cc2ccc(O)cc2)C(=O)O)CSSC1(C)C [Example 75, Gua-Val-Hyp-Ile-Pen-Tyr-Ser-Asn-Arg-Dab-Thr-^DDab-Lys-Dab-Agb-Cys-Tyr] ({Val(Nα-amidino)}-[Hyp]I[Pen]YSNR[Dab]T[dDab]K[Dab][Agb]CY-OH; disulfide 3-14) | <1% | 0.125 µg/mL | 0.0625 µg/mL | 0.125 µg/mL
CC[C@H](C)[C@H](NC(=O)[C@@H]1C[C@@H](O)CN1C(=O)[C@@H](N)C(C)C)C(=O)N[C@@H]1C(=O)N[C@@H](Cc2ccc(O)cc2)C(=O)N[C@@H](CCC(=O)O)C(=O)N[C@@H](CC(N)=O)C(=O)N[C@@H](CCCNC(=N)N)C(=O)N[C@@H](CCN)C(=O)N[C@@H]([C@@H](C)O)C(=O)N[C@H](CCN)C(=O)N[C@@H](CCCCN)C(=O)N[C@@H](CCN)C(=O)N[C@@H](CCN)C(=O)N[C@H](C(=O)N[C@@H](Cc2ccc(O)cc2)C(=O)O)CSSC1(C)C [Example 17, Val-Hyp-Ile-Pen-Tyr-Glu-Asn-Arg-Dab-Thr-^DDab-Lys-Dab-Dab-Cys-Tyr] (H-V[Hyp]I[Pen]YENR[Dab]T[dDab]K[Dab][Dab]CY-OH; disulfide 4-15) | <1% | 0.5 µg/mL | 0.25 µg/mL | 0.5 µg/mL
CC[C@H](C)[C@H](NC(=O)[C@@H]1C[C@@H](O)CN1C(=O)[C@@H](N)C(C)C)C(=O)N[C@@H]1C(=O)N[C@@H](Cc2ccc(O)cc2)C(=O)N[C@@H](CO)C(=O)N[C@@H](CC(N)=O)C(=O)N[C@@H](CCCNC(=N)N)C(=O)N[C@@H](CCN)C(=O)N[C@@H]([C@@H](C)O)C(=O)N[C@H](CCCCN)C(=O)N[C@@H](CCCCN)C(=O)N[C@@H](CCN)C(=O)N[C@@H](CCN)C(=O)N[C@H](C(=O)N[C@@H](Cc2ccc(O)cc2)C(=O)O)CSSC1(C)C [Example 35, Val-Hyp-Ile-Pen-Tyr-Ser-Asn-Arg-Dab-Thr-^DLys-Lys-Dab-Dab-Cys-Tyr] (H-V[Hyp]I[Pen]YSNR[Dab]T[dK]K[Dab][Dab]CY-OH; disulfide 4-15) | <1% | 0.25 µg/mL | 0.0625 µg/mL | 0.125 µg/mL
CC[C@H](C)[C@H](NC(=O)[C@@H]1C[C@@H](O)CN1C(=O)[C@@H](NC(=N)N)C(C)C)C(=O)N[C@@H]1C(=O)N[C@@H](Cc2ccc(O)cc2)C(=O)N[C@@H](CCCNC(N)=O)C(=O)N[C@@H](CC(N)=O)C(=O)N[C@@H](CCCNC(=N)N)C(=O)N[C@@H](CCN)C(=O)N[C@@H]([C@@H](C)O)C(=O)N[C@H](CCN)C(=O)N[C@@H](CO)C(=O)N[C@@H](CCN)C(=O)N[C@@H](CCN)C(=O)N[C@H](C(=O)N[C@@H](Cc2ccc(O)cc2)C(=O)O)CSSC1(C)C [Example 122, Gua-Val-Hyp-Ile-Pen-Tyr-Cit-Asn-Arg-Dab-Thr-^DDab-Ser-Dab-Dab-Cys-Tyr] ({Val(Nα-amidino)}-[Hyp]I[Pen]Y[Cit]NR[Dab]T[dDab]S[Dab][Dab]CY-OH; disulfide 3-14) | <1% | 0.25 µg/mL | 0.25 µg/mL | 0.125 µg/mL
CC[C@H](NC(=N)N)C(=O)N1C[C@H](O)C[C@H]1C(=O)N[C@H](C(=O)N[C@@H]1C(=O)N[C@@H](Cc2ccc(O)cc2)C(=O)N[C@@H](CO)C(=O)N[C@@H](CC(N)=O)C(=O)N[C@@H](CCCNC(=N)N)C(=O)N[C@@H](CCN)C(=O)N[C@@H]([C@@H](C)O)C(=O)N[C@H](CCN)C(=O)N[C@@H](CCCCN)C(=O)N[C@@H](CCN)C(=O)N[C@@H](CCN)C(=O)N[C@H](C(=O)N[C@@H](Cc2ccc(O)cc2)C(=O)O)CSSC1(C)C)[C@@H](C)CC [Example 76, Gua-Abu-Hyp-Ile-Pen-Tyr-Ser-Asn-Arg-Dab-Thr-^DDab-Lys-Dab-Dab-Cys-Tyr] (X1-[Hyp]I[Pen]YSNR[Dab]T[dDab]K[Dab][Dab]CY-OH; disulfide 3-14) | <1% | 0.25 µg/mL | 0.5 µg/mL | 1 µg/mL
